Reference: the supplement of paper PMC10331698
± gives the standard deviation of the averaged measurements.

Legend:
Experiment in all cases: level (log10 ratio to DMSO vehicle control); higher = higher biomarker level / cell amount than vehicle control
Conditions in all cases: in DMSO
[1] = compound: C=C(C)C(=O)OCC(F)(F)C(F)(F)C(F)(F)C(F)(F)C(F)(F)C(F)(F)C(F)(F)F
Experimental: (§1)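 BioMAP Diversity Plus panel of 12 human primary cell co-culture systems (3C, 4H, LPS, SAg, BT, BF4T, BE3C, CASM3C, HDF3CGF, KF3CT, MyoF, Mphg). Compounds were added 1 h before stimulation and left for 24 h (MyoF 48 h; BT 72 h for soluble read-outs or 6 d for IgG). Biomarkers were read by ELISA, cytotoxicity by SRB, PBMC viability and proliferation by Alamar Blue. Each well value was divided by the mean of 8 DMSO control wells on the same plate and log10 transformed; duplicate blinded samples were tested at 4 concentrations.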

1-(Perfluorohexyl)octane = compound: CCCCCCCCC(F)(F)C(F)(F)C(F)(F)C(F)(F)C(F)(F)C(F)(F)F [1-(Perfluorohexyl)octane]
Experimental: as §1

Perfluorohexanoic acid = compound: O=C(O)C(F)(F)C(F)(F)C(F)(F)C(F)(F)C(F)(F)F [Perfluorohexanoic acid]
Experimental: as §1

[2] = compound: O=C(O)C(F)(F)OC(F)(F)C(F)(F)OC(F)(F)C(F)(F)C(F)(F)C(F)(F)F [Perfluoro-3,6-dioxadecanoic acid]
Experimental: as §1

[3] = compound: O=P(O)(O)CCC(F)(F)C(F)(F)C(F)(F)C(F)(F)C(F)(F)C(F)(F)C(F)(F)C(F)(F)F [((Perfluorooctyl)ethyl)phosphonic acid]
Experimental: as §1

[4] = compound: O=S(=O)(O)C(F)(F)C(F)(F)C(F)(F)C(F)(F)C(F)(F)C(F)(F)C(F)(F)C(F)(F)F [Potassium perfluorooctanesulfonate]
Experimental: as §1

[5] = compound: OCC(F)(F)C(F)(F)C(F)(F)C(F)(F)C(F)(F)C(F)F [1H,1H,7H-Dodecafluoro-1-heptanol]
Experimental: as §1

Test System | level (log10) ([1]; 6700 nM) | level (log10) ([1]; 20000 nM) | level (log10) (1-(Perfluorohexyl)octane; 6700 nM) | level (log10) (1-(Perfluorohexyl)octane; 20000 nM) | level (log10) (Perfluorohexanoic acid; 6700 nM) | level (log10) (Perfluorohexanoic acid; 20000 nM) | level (log10) (Perfluorohexanoic acid; 60000 nM) | level (log10) ([2]; 6700 nM) | level (log10) ([2]; 20000 nM) | level (log10) ([2]; 60000 nM) | level (log10) ([3]; 6700 nM) | level (log10) ([3]; 20000 nM) | level (log10) ([3]; 60000 nM) | level (log10) ([4]; 6700 nM) | level (log10) ([4]; 20000 nM) | level (log10) ([4]; 60000 nM) | level (log10) ([5]; 6700 nM) | level (log10) ([5]; 20000 nM) | level (log10) ([5]; 60000 nM)
SAg:CD40 | -0.0375 ± 0.00071 | -0.0425 ± 0.011 | -0.0275 ± 0.00071 | -0.017 ± 0.016 | 0.0065 ± 0.016 | -0.0145 ± 0.012 | -0.0095 ± 0.021 | 0.003 ± 0.0028 | -0.0195 ± 0.016 | -0.08 ± 0.052 | -0.0305 ± 0.0078 | -0.0405 ± 0.018 | -0.136 ± 0.025 | -0.005 ± 0.0057 | -0.0205 ± 0.039 | -0.032 ± 0.042 | 0.015 ± 0.0099 | 0 ± 0.018 | -0.0015 ± 0.005
SAg:CD62E/E-Selectin | -0.001 ± 0.024 | 0.0155 ± 0.011 | -0.019 ± 0.013 | 0.003 ± 0.0099 | 0.001 ± 0.018 | -0.01 ± 0.023 | 0.0195 ± 0.005 | 0.027 ± 0.058 | 0.0485 ± 0.025 | 0.065 ± 0.081 | 0.0135 ± 0.0021 | 0.0275 ± 0.019 | -0.0155 ± 0.03 | -0.004 ± 0.0057 | 0.0315 ± 0.013 | 0.033 | -0.0075 ± 0.0021 | -0.0205 ± 0.013 | -0.02 ± 0.0057
SAg:CD69 | -0.01 ± 0.05 | -0.001 ± 0.045 | -0.0045 ± 0.011 | -0.0045 ± 0.028 | -0.0065 ± 0.00071 | -0.0115 ± 0.021 | -0.0125 ± 0.0092 | 0 ± 0.013 | -0.0405 ± 0.00071 | -0.105 ± 0.067 | -0.01 ± 0.017 | -0.016 ± 0.05 | -0.006 ± 0.052 | -0.0075 ± 0.013 | -0.002 ± 0.014 | -0.002 ± 0.021 | -0.004 ± 0.013 | -0.0015 ± 0.021 | -0.002 ± 0.016
SAg:CXCL8/IL-8 | -0.024 ± 0.031 | 0.0185 ± 0.0064 | -0.013 ± 0.0085 | 0.032 ± 0.041 | -0.049 ± 0.052 | -0.009 ± 0.038 | 0.0035 ± 0.084 | -0.018 ± 0.0028 | -0.0295 ± 0.018 | -0.0385 ± 0.022 | 0.022 ± 0.023 | 0.037 ± 0.03 | 0.052 ± 0.011 | -0.0055 ± 0.018 | 0.0145 ± 0.036 | 0.025 ± 0.027 | 0.025 ± 0.0028 | 0.008 ± 0.0071 | 0.037 ± 0.038
SAg:CXCL9/MIG | -0.003 ± 0.017 | 0.009 ± 0.0014 | -0.002 ± 0.0057 | 0.0095 ± 0.016 | -0.0005 ± 0.0064 | -0.001 ± 0.0085 | 0.0055 ± 0.005 | -0.0095 ± 0.016 | -0.0135 ± 0.013 | 0.01 ± 0.0042 | 0.001 ± 0.0028 | 0.006 ± 0.0085 | -0.0115 ± 0.023 | -0.0135 ± 0.00071 | 0.005 ± 0.0057 | -0.0035 ± 0.019 | 0.006 ± 0.0071 | -0.006 ± 0.0071 | 0.01 ± 0.0099
SAg:PBMC Cytotoxicity | 0.0115 ± 0.005 | 0.0265 ± 0.046 | 0.023 ± 0.011 | 0.023 ± 0.017 | -0.0155 ± 0.046 | 0.002 ± 0.0028 | 0.009 ± 0.073 | 0.03 ± 0.0085 | 0.0395 ± 0.018 | 0.0705 ± 0.00071 | -0.025 ± 0.017 | -0.04 ± 0.0042 | -0.037 ± 0.037 | 0.0165 ± 0.0092 | 0.012 ± 0.013 | 0.0315 ± 0.029 | 0.001 ± 0.0099 | 0.028 ± 0.067 | -0.039 ± 0.0028
SAg:Proliferation | 0.0015 ± 0.0064 | 0.0185 ± 0.0092 | 0.0125 ± 0.04 | 0.0675 ± 0.03 | 0.0065 ± 0.011 | 0.003 ± 0.021 | 0.027 ± 0.0042 | -0.007 ± 0.03 | 0.023 ± 0.033 | 0.0095 ± 0.043 | -0.023 ± 0.023 | -0.03 ± 0.0071 | -0.0345 ± 0.077 | 0.0005 ± 0.0021 | 0.0495 ± 0.0035 | 0.066 ± 0.051 | -0.003 ± 0.014 | 0.03 ± 0.037 | 0.007 ± 0.018
SAg:SRB | -0.001 ± 0.0099 | -0.0095 ± 0.021 | 0.0035 ± 0.0078 | -0.004 ± 0.018 | -0.0055 ± 0.0035 | -0.0135 ± 0.0035 | -0.001 ± 0.0028 | -0.016 ± 0.0014 | -0.0085 ± 0.021 | -0.0855 ± 0.037 | -0.01 ± 0.021 | -0.042 ± 0.034 | -0.125 ± 0.044 | -0.0055 ± 0.028 | -0.0255 ± 0.035 | -0.0335 ± 0.0035 | -0.014 ± 0.017 | -0.0105 ± 0.028 | -0.013 ± 0.011
